Data from ChEMBL document CHEMBL4270493, “Recent updates on third generation EGFR inhibitors and emergence of fourth generation EGFR inhibitors to combat C797S resistance” (Eur J Med Chem, 2017).

Columns and labels:
Homo sapiens [1] = organism: Homo sapiens; assay: Toxicity in patient with EGFR T790M mutant NSCLC assessed as drug discontinuation rate at 500 mg BID during phase 1/2 study; assay type: organism-based; conditions: in vivo
Homo sapiens [2] = organism: Homo sapiens; assay: Antitumor activity in patient with EGFR T790M mutant NSCLC assessed as disease control rate at 500 mg BID during phase 1/2 study; assay type: functional
Homo sapiens [3] = organism: Homo sapiens; assay: Toxicity in patient with EGFR T790M mutant NSCLC assessed as induction of grade 3 hyperglycemia at 500 mg BID during phase 1/2 study; assay type: organism-based; conditions: in vivo
Homo sapiens [4] = organism: Homo sapiens; assay: Antitumor activity in patient with EGFR T790M mutant negative NSCLC assessed as overall response rate at 500 mg BID during phase 1/2 study; assay type: functional
Homo sapiens [5] = organism: Homo sapiens; assay: Toxicity in patient with EGFR T790M mutant NSCLC assessed as induction of grade 3 QTc prolongation at 500 mg BID during phase 1/2 study; assay type: organism-based; conditions: in vivo
Homo sapiens [6] = organism: Homo sapiens; assay: Antitumor activity in patient with EGFR T790M mutant NSCLC assessed as objective response rate at 500 mg BID during phase 1/2 study; assay type: functional

C=CC(=O)Nc1cccc(Nc2nc(Nc3ccc(N4CCN(C(C)=O)CC4)cc3OC)ncc2C(F)(F)F)c1 [ROCILETINIB]
Activity (Homo sapiens [1]): 2.5%
Activity (Homo sapiens [2]): 90%
Activity (Homo sapiens [3]): 17%
Activity (Homo sapiens [4]): 37%
Activity (Homo sapiens [5]): 2.5%
Activity (Homo sapiens [6]): 60%
